Results published in EPA's ToxValDB 9.5.
In brackets after ≈: the same amount, converted by molar mass. Values belong to the molecule of their own block, whether it stands above or below them.

How the values were obtained:
[1] = system: Rattus norvegicus
[2] = system: Tagia sp.; settings: for NOEC: chronic/long-term, duration: 56 days
[3] = system: Typhlodromus pyri; settings: not reported; mortality
[4] = system: Aphidius rhopalosiphi; experiment: LR50; higher = less toxic; settings: not reported; mortality
[5] = system: Anas platyrhynchos
[6] = system: Colinus virginianus
[7] = system: Coturnix japonica; settings: acute; oral; mortality
[8] = system: Chalcophaps sp.; settings: subchronic; oral; feed; clinical chemistry
[9] = system: Anatidae; settings: subchronic; duration: 7 weeks; body weight
[10] = system: Bovidae; settings: subchronic; duration: 30 days; oral; gavage; histopathology: neoplastic
[11] = system: Gallus gallus
[12] = system: Ictalurus punctatus; settings: not reported; mortality
[13] = system: Meleagris sp.
[14] = system: Oryctolagus sp.
[15] = system: Bibionidae; settings: chronic/long-term; duration: 28 days; other
[16] = system: Canidae; settings: for NOAEL: oral
[17] = system: Daphnia magna; settings: chronic/long-term, duration: 21 days
[18] = system: Equus caballus; settings: short-term; duration: 14 days; oral; feed; M/F; no effects
[19] = system: Pleurozium sp.; settings: acute; duration: 72 hours; growth
[20] = system: Sinapis alba; settings: not reported; no effects
[21] = system: Sus scrofa; settings: short-term; duration: 10 days; Not specified; no effects
[22] = system: Triticum sp.; settings: not reported; no effects
[23] = system: Vigna radiata var. radiata; settings: not reported; no effects
[24] = system: Aphidius rhopalosiphi; settings: not reported; mortality
[25] = system: Oncorhynchus mykiss; settings: for LC50: acute, duration: 96 hours, mortality
[26] = system: Typhlodromus pyri; experiment: LR50; higher = less toxic; settings: not reported; mortality
[27] = system: Homo sapiens; settings: clinical; oral; M; clinical signs
[28] = system: Macaca mulatta; settings: chronic; duration: 1 years; oral; gavage; M/F; clinical signs
[29] = system: Anser anser; settings: not reported; oral; feed; mortality
[30] = system: Coturnix coturnix; settings: repeat dose other; food consumption
[31] = system: Perdix sp.; settings: not reported; mortality
[32] = system: Apis mellifera; settings: acute, mortality
[33] = system: Neomysis kadiakensis; settings: acute; duration: 96 hours; mortality
[34] = subchronic, duration: 5 weeks, clinical signs

SMILES: COP(=O)(OC)C(O)C(Cl)(Cl)Cl (stereo not drawn) [Trichlorfon]
LD50 ([1]; acute, oral, F, mortality): 212 mg/kg-day
NOAEL ([1]; chronic, oral, M): 13.2 mg/kg-day
LC50 ([2]; acute, duration: 14 days, mortality): 140 mg/kg
LEL [3]: 1200 g/ha
LR50 [4]: 0.519 g/ha

SMILES: CNC(=O)Oc1cc(C)c(SC)c(C)c1 [Methiocarb]
LC50 ([5]; short-term, oral, feed, mortality): 1070 mg/kg
NOEC ([6]; reproduction developmental, reproduction): 4.51 mg/kg-day
LD50 [7]: 5 mg/kg

SMILES: Clc1ccc(C(c2ccc(Cl)cc2)C(Cl)(Cl)Cl)cc1 [DDT]
NOAEL ([5]; subchronic, mortality): 0.6 mg/kg-day
LEL [8]: 0.6 mg/kg-day

SMILES: CC(=O)OC[C@]12C[C@H](OC(=O)CC(C)C)C(C)=C[C@H]1O[C@H]1[C@H](O)[C@H](OC(C)=O)[C@@]2(C)[C@]12CO2 [T-2 toxin]
LOAEL [9]: 40 µg/kg-day
LOAEL [10]: 0.3 mg/kg-day
LOAEL ([11]; short-term, duration: 24 days, oral, diet, F, reproduction): 0.12 mg/kg-day
LOAEL [11, 34]: 0.04 mg/kg-day
NOAEL [12]: 13 µg/kg-day
LOAEL [13, 34]: 48 µg/kg-day
NOAEL ([14]; subchronic, oral, diet, F, clinical chemistry): 0.1 mg/kg-day

LEL [18]: 6.25 mg/kg-day
LEL ([11]; short-term, duration: 21 days, no effects): ≤ 150 mg/L
LEL ([11]; subchronic, duration: 35 days, oral, diet, Chicken, no effects): 400 mg/kg-day
LEL ([11]; subchronic, duration: 42 days, oral, diet, no effects): 400 mg/kg-day
LEL [21]: 80 mg/kg-day
SMILES: CCCCCCCCCCOc1cc2c(=O)c(C(=O)OCC)c[nH]c2cc1OCC [Decoquinate]
NOEC (subchronic, duration: 56 days, other): ≥ 9.2 mg/kg-day
NOEC [15]: 16.3 mg/kg
NOEL ([16]; subchronic, duration: 12 weeks, Beagle, behavior): 15 mg/kg-day
NOEC ([17]; no effects): 35.2 µg/L
NOEL ([14]; developmental, duration: 11 days, oral, capsule, F, New Zealand, development): 60 mg/kg-day
NOAEL ([14]; reproduction developmental, F, mortality): 60 mg/kg-day
NOEC [19]: 73 µg/L
NOEL ([1]; developmental, duration: 11 days, oral, gavage, F, Sprague-Dawley, development): 100 mg/kg-day
NOEC [20]: ≤ 100 mg/kg
NOEC ([2]; no effects): > 1000 mg/kg
NOEC ([2]; reproduction): 1000 mg/kg
NOEC [22]: ≤ 100 mg/kg
NOEC [23]: ≤ 100 mg/kg

SMILES: CC1=CC1 [1-Methylcyclopropene]
NOAEL (reproduction developmental): 22.4 mg/kg-day
LEL [24]: 10 mg/kg
NOAEL ([16]; subchronic, duration: 90 days, Dog Other, hematological): 22.4 mg/kg-day
LD50 ([6]; acute, oral, mortality): > 81 mg/kg-day
LC50 [25]: > 0.966 µg/mL
LC50 ([1]; acute, inhalation, mortality): > 2.5 µg/mL
LD50 ([1]; acute, oral, mortality): > 235 mg/kg-day
NOAEL ([1]; reproduction developmental): 543 mg/kg-day
NOAEL ([1]; reproduction developmental, inhalation): 6.5 mg/kg-day
NOAEL ([1]; reproduction developmental, oral, diet, body weight): 3.8 mg/kg-day
NOAEL ([1]; short-term, duration: 3 weeks, inhalation, M): 68 mg/kg-day
NOAEL ([1]; subchronic, duration: 90 days, inhalation, M, hematological): 9 mg/kg-day
LD50 ([2]; acute, mortality): > 4.41 ppm
LEL [3]: 10 mg/kg
LR50 [26]: > 10 ppm

SMILES: CC(CCc1ccc(O)cc1)NCC(O)c1ccc(O)cc1.Cl (stereo not drawn) [Ractopamine hydrochloride]
NOAEL ([16]; acute, M/F, Beagle, clinical signs): 0.002 mg/kg-day
NOEL [27]: 0.067 mg/kg-day
NOAEL [28]: 0.125 mg/kg-day

SMILES: Br.O=C(C[C@H]1NCCC[C@@H]1O)Cn1cnc2cc(Br)c(Cl)cc2c1=O [Halofuginone hydrobromide]
LEL [29]: 3 mg/kg
LEL [30]: 3 mg/kg-day
LEL ([11]; subchronic, duration: 8 weeks, oral, diet, hematological): 6 mg/kg-day
LEL ([13]; chronic/long-term, duration: 20 weeks, oral, feed, body weight): 9 mg/kg
LEL ([14]; repeat dose other, food consumption): 3 mg/kg-day
NOEL ([14]; reproduction developmental, body weight): 0.03 mg/kg-day
LEL [31]: 3 mg/kg

SMILES: O=[N+]([O-])/N=C1\NCCN1Cc1ccc(Cl)nc1 [Imidacloprid]
LD50 ([5]; acute, oral, unspecified): 66 mg/kg-day
LD50 ([32]; dermal): 0.081 µg/piece
NOEC ([32]; dermal): < 2.5 µg/piece
LD50 ([32]; duration: 48 hours, dermal): 0.081 µg/piece
LD50 ([32]; duration: 48 hours, oral, unspecified): 0.0037 µg/piece
LD50 ([32]; duration: 120 hours, dermal): 0.0251 µg/piece
LD50 ([32]; oral, unspecified): 0.0037 µg/piece
NOAEL ([16]; subchronic, duration: 90 days, Dog Other, clinical signs): 7.8 mg/kg-day
NOAEL ([6]; reproduction developmental): 9.3 mg/kg-day
NOEL ([6]; short-term, oral, diet): 29.4 mg/kg-day
NOEC ([17]; reproduction): 1800 µg/L
LC50 [33]: 0.0341 µg/mL (≈ 0.133 µM)
LC50 [25]: > 83 µg/mL
NOEC ([25]; chronic/long-term, duration: 91 days, time to hatch): 9.02 mg/L
LD50 ([1]; acute): 256 mg/kg-day
NOAEL ([1]; chronic): 17 mg/kg-day
NOAEL ([1]; chronic, duration: 2 years, M, histopathology: nonneoplastic): 5.7 mg/kg-day
NOAEL ([1]; subchronic, duration: 90 days, oral, histopathology: nonneoplastic): 9.3 mg/kg-day
